Measured values reported in patent US4535081A, “Antiallergic and antiulcer 1-oxo-1H-thiazolo[3,2-a]pyrimidine-2-carboxamides and intermediates therefor” (Pfizer Inc., priority 1983, dated 1985).
Entries after “also recorded” stand apart in the source; their conditions may differ.

What was measured:
[1] = tested on: cold-restraint stress gastric ulcer; test: Cold-restraint stressed rat ulcer assay; format: in vivo
Protocol: The effectiveness of the products of this invention as anticulcer agents is determined by the so-called cold-restraint stressed rat assay. In this test non-fasted female rats (Charles River C-D strain) weighing 70-140 gms. are administered the drug or carrier (control animals) intraperitoneally (in saline solution containing 1% carboxymethylcellulose and 0.1% Tween 80) or orally (in water) three hours before being lightly anesthetized with ether and taped in the supine position to individual sheets of plexiglass. After recovery from anesthesia, the restrained animals are positioned horizontally in a refrigerator maintained at 10°-12° C. and three hours later sacrificed by cervical dislocation. The abdomen of each rat is opened, the pylorus clamped, the stomach inflated with saline via an oral tube, the esophagus clamped and the stomach excised. The stomachs are placed in a 0.4% formaldehyde solution for approximately 30 seconds to harden the outer layers and facilitate examination. Each stomach is then cut open along the greater curvature and the glandular portion (hind stomach) examined for damage. The number of gastric erosions, their severity and the color of the stomachs is recorded. […]

[2] = tested on: ulcerogenic effects of aspirin; test: Protection against ulcerogenic effects of aspirin; format: in vivo; conditions: p.o.; aspirin 100 mg/kg p.o.
Protocol: Compound III also protects against the ulcerogenic effects of aspirin, 100 mg/kg p.o. where dose-related effects are seen over the dose range of 10 to 1000 μg/kg, p.o. with an ED50 of 100 μg/kg. Compound III is also active in a phenylbutazone gastric ulcer model where an oral ED50 of 200 μg/kg is observed. […] "Cytoprotective," a term coined recently to describe the antiulcer effects of prostaglandins that are independent of antisecretory activity, [Robert, Advances in Prostaglandin and Thromboxane Research 2, 507 (1976); Miller et al., Gut 20, 75 (1979); Robert et al., Gastroenterology 72, 1121 (1977).] aptly characterizes the effects of compound III.

[3] = tested on: blood glucose levels; test: Blood glucose in fasted rats; format: in vivo, rat; conditions: fasted 24 hours; oral 10, 30 or 100 mg/kg
[4] = tested on: dogs; test: Toleration study, oral, seven days, dogs; format: in vivo, dog
Protocol: In toleration studies, III were given orally by gavage to dogs for a period of seven days at doses of 50, 150 and 300 mg/kg/day.

[5] = Plasma levels after repeated daily dosing; format: in vivo; conditions: after the eighth daily dose of III
Protocol: This is supported by the observations of plasma concentrations of 3 to 7 μg/ml one hour after oral administration of III, 50 to 300 mg/kg.

[6] = oral, 7 days, 50, 150 and 300 mg/kg/day

SMILES: O=C(Nc1nnn[nH]1)c1cnc2sc3c(n2c1=O)CCCC3 [Compound III, N-(5-Tetrazolyl)-1-oxo-1H-cyclohexenothiazolo[3,2-a]pyrimidine-2-carboxamide]
- oral dose range of dose-related protection, cold-restraint stress ([1]; oral): 3 to 100 µg/kg
- potency in cold-restraint stress gastric ulcer procedure ([1]; rat, in vivo): extremely potent; also recorded: highly potent
- dose range of dose-related effects, aspirin ulcer [2]: 10 to 1000 µg/kg
- blood glucose levels [3]: did not exhibit any changes in blood glucose levels
- emetic effect, capsule after meals ([4]; capsule after, rather than before, meals): could be eliminated
- gross pathological changes [4, 6]: No gross pathological changes were observed
- microscopic examination of liver, kidney, heart and lung [4, 6]: did not reveal any changes
- levels after the eighth daily dose relative to initial dose [5]: 2 to 4 times
